“Also recorded” adds a separate entry of the source.
What was measured:
wild-type JAK2 = assay: Expression of wild-type JAK2 in K562 cells after siRNA treatment; assay type: cell-based, human; details: 24 hours after treatment (FIG. 10)
Description: FIG. 10: Level of WT Jak2 expression in K562 cells remains unchanged 24 hours after treatment with siRNA specific to Jak2 V617.
Lane Je: K562 cells treated with siRNA WT Jak2
Lanes 0 to 6: K562 cells treated with siRNA V617F Jak2
Lane C−: 293HEK (no expression of JAK2).
(§1) The results are shown FIGS. 8, 9 and 10.

V617F JAK2 = assay: Expression of V617F JAK2 in HEL cells after siRNA treatment; assay type: cell-based, human; details: 24 hours after treatment (FIGS. 8 and 9)
Description: FIGS. 8 and 9: Expression of V617F Jak2 in HEL cells is reduced 24 hours after treatment with siRNA specific to JAK2 V617F Jak2 (siRNA #1, 3 and 4).
Lanes 0 to 6: HEL cells treated (1 to 6) or non-treated (0) with siRNA V617F Jak2.
Lane C+: 293HEK cells transfected with the V617F Jak2RV vector
as §1

Substance | level of WT Jak2 expression (wild-type JAK2) | expression of V617F Jak2 protein (V617F JAK2)
siRNA 1: siRNA specific to the V617F JAK2 mutation; said to correspond to SEQ ID No 25 (probably No 29, UGGAGUAUGUUUCUGUGGA) (listed as RNA, chemistry not given here) | without inhibiting | reduced; also recorded: inhibit
siRNA 3: siRNA specific to the V617F JAK2 mutation; said to correspond to SEQ ID No 26 (probably No 30, GGAGUAUGUUUCUGUGGAG) (listed as RNA, chemistry not given here) | without inhibiting | reduced; also recorded: inhibit
siRNA 4: siRNA specific to the V617F JAK2 mutation; said to correspond to SEQ ID No 27 (probably No 31, GAGUAUGUUUCUGUGGAGA) (listed as RNA, chemistry not given here) | without inhibiting | reduced; also recorded: inhibit
